Earlier results as cited in patent US11377445B2, “Derivatives of paliperidone and process for the preparation thereof” (Zenvision Pharma LLP, priority 2018, dated 2022).

Cc1nc2n(c(=O)c1CCN1CCC(c3noc4cc(F)ccc34)CC1)CCCC2O (racemic) [Paliperidone, (±)-3-[2-[4-(6-fluoro-1,2-benzisoxazol-3-yl)-1-piperidinyl]ethyl]-6,7,8,9-tetrahydro-9-hydroxy-2-methyl-4Hpyrido[1,2-a]pyrimidin-4-one]
solubility in 0.1N HCl (0.1N HCl): sparingly soluble
solubility in 0.1N NaOH (0.1N NaOH): practically insoluble
solubility in N, N-dimethylformamide (N, N-dimethylformamide): slightly soluble
solubility in hexane (hexane): practically insoluble
solubility in methylene chloride (methylene chloride): sparingly soluble
solubility in water (water): practically insoluble

CCCCCCCCCCCCCCCC(=O)OC1CCCn2c1nc(C)c(CCN1CCC(c3noc4cc(F)ccc34)CC1)c2=O (centres unmarked) [Paliperidone palmitate]
solubility in ethanol (ethanol): very slightly soluble
solubility in ethyl acetate (ethyl acetate): slightly soluble
solubility in methanol (methanol): very slightly soluble
solubility in polyethylene glycol 400 (polyethylene glycol 400): practically insoluble
solubility in propylene glycol (propylene glycol): practically insoluble
